Results published in ChEMBL document CHEMBL5247624, “N-sulfonylpiperidinedispiro-1,2,4,5-tetraoxanes exhibit potent in vitro antiplasmodial activity and in vivo efficacy in mice infected with P. berghei ANKA” (Eur J Med Chem, 2022).
Active and inactive are the calls of the source. No cut-off for these calls is given here.

Key:
Huh-7 = experiment: Cytotoxicity against human Huh-7 cells assessed as reduction in cell viability incubated for 72 hrs by MTT assay; type: functional
Plasmodium falciparum [1] = experiment: Antiplasmodial activity against erythrocytic stage of chloroquine-sensitive Plasmodium falciparum 3D7 assessed as inhibition of parasite growth incubated for 3 days by HRP2-ELISA assay; type: functional, organism-based; conditions: 3D7, 72 h
Plasmodium berghei [2] = experiment: Antiplasmodial activity against Plasmodium berghei infected in Swiss Webster mouse assessed as reduction of parasitaemia by measuring partial cure at 2 mg/kg/day,po administrated for 4 days; type: functional; design: scale not given: the % may be the effect or the level left; conditions: time 4 day
Plasmodium falciparum [3] = experiment: Antiplasmodial activity against Plasmodium falciparum W2 infected in human RBC assessed as inhibition of parasite growth incubated for 48 hrs by flow cytometry; type: functional, organism-based; conditions: W2, Erythrocyte
Plasmodium berghei [4] = experiment: Antiplasmodial activity against Plasmodium berghei ANKA infected in Swiss albino mouse assessed as reduction of parasitaemia at 60 mg/kg/day,ip qd measured at 24 hrs post administration by Giemsa staining assay relative to control; type: functional; design: scale not given: the % may be the effect or the level left
Plasmodium falciparum [5] = experiment: Antiplasmodial activity against erythrocytic stage of chloroquine-sensitive Plasmodium falciparum 3D7 infected in human RBC assessed as increase in intracellular ROS level at 10 uM incubated for 3 hrs by H2DCFDA probe based flow cytometry; type: functional, organism-based; conditions: Erythrocyte
Plasmodium berghei [6] = experiment: Antiplasmodial activity against Plasmodium berghei ANKA infected in Swiss albino mouse assessed as parasite recrudescence by measuring parasitemia at 60 mg/kg/day,ip qd administrated for 4 subsequent days by Giemsa staining assay; type: functional
Plasmodium falciparum [7] = experiment: Antiplasmodial activity against erythrocytic stage of chloroquine-sensitive Plasmodium falciparum 3D7 infected in human RBC assessed as increase in intracellular ROS level by measuring green fluorescence at 10 uM incubated for 3 hrs by H2DCFDA probe based fluorescence microscopic analysis; type: functional, organism-based; conditions: Erythrocyte
Plasmodium berghei [8] = experiment: Antiplasmodial activity against Plasmodium berghei ANKA infected in Swiss albino mouse assessed as partial cure by measuring parasitemia at 60 mg/kg/day,ip qd measured after 48 hrs post administration by Giemsa staining assay; type: functional, organism-based
Plasmodium berghei [9] = experiment: Antiplasmodial activity against Plasmodium berghei ANKA infected in Swiss albino mouse assessed as reduction of parasitaemia at 60 mg/kg/day,ip qd administrated for 5 subsequent days by Giemsa staining assay relative to control; type: functional; design: scale not given: the % may be the effect or the level left
Plasmodium berghei [10] = experiment: Antiplasmodial activity against Plasmodium berghei ANKA infected in Swiss albino mouse assessed as reduction of parasitaemia at 60 mg/kg/day,ip qd measured after 72 hrs post administration by Giemsa staining assay; type: functional, organism-based
Plasmodium berghei [11] = experiment: Antiplasmodial activity against Plasmodium berghei ANKA infected in Swiss albino mouse assessed as increase in parasite clearance rate at 60 mg/kg/day,ip qd administrated for 5 subsequent days by Giemsa staining assay; type: functional, organism-based
Plasmodium berghei [12] = experiment: Antiplasmodial activity against Plasmodium berghei ANKA infected in Swiss albino mouse assessed as reduction of parasitaemia at 60 mg/kg/day,ip qd measured after 72 hrs post administration by Giemsa staining assay relative to control; type: functional; design: scale not given: the % may be the effect or the level left
Plasmodium berghei [13] = experiment: Antiplasmodial activity against Plasmodium berghei ANKA infected in Swiss albino mouse assessed as increase in animal survival rate at 60 mg/kg/day,ip qd administrated for 5 subsequent days; type: functional, organism-based

Row | SMILES | CC50 (Huh-7) [µg/mL] | IC50 (Plasmodium falciparum [1]) [nM] | also measured
1 | CCCS(=O)(=O)N1CCC2(CC1)OOC(C)(C(C)C)OO2 | > 100 | 21.4 | –
2 | CS(=O)(=O)N1CCC2(CC1)OOC1(CCN(S(C)(=O)=O)CC1)OO2 | > 100 | 39.6 | –
3 | COc1ccc(S(=O)(=O)N2CCC3(CC2)OOC2(CCCC2)OO3)cc1 | > 100 | 25.3 | –
4 | Cc1ccc(S(=O)(=O)N2CCC3(CC2)OOC2(CCCCCC2)OO3)cc1 | > 100 | 55.3 | –
5 | CCCCS(=O)(=O)N1CCC2(CC1)OOC1(CCCCCC1)OO2 | > 100 | 13.8 | –
6 | CC(C)(N)CNC(=O)O[C@@H]1CCC[C@]2(C1)OOC1(O2)C2CC3CC(C2)CC1C3 (stereo partly drawn) | – | – | Activity (Plasmodium berghei [2]): 100%; EC50 (Plasmodium falciparum [3]): 1.8 nM
7 | Cc1ccc(S(=O)(=O)N2CCC3(CC2)OOC2(CCCCC2)OO3)cc1 | > 100 | 40.2 | –
8 | CS(=O)(=O)N1CCC2(CC1)OOC1(CCCCC1)OO2 | > 100 | 16.3 | –
9 | O=S(=O)(c1ccc(F)cc1)N1CCC2(CC1)OOC1(CCCC1)OO2 | > 100 | 67 | –
10 | C1CCCC2(CC1)OOC1(CCCCCC1)OO2 | > 100 | 39.4 | –
11 | CCS(=O)(=O)N1CCC2(CC1)OOC1(CCCC1)OO2 | > 100 | 11.8 | –
12 | O=S(=O)(c1ccc(F)cc1)N1CCC2(CC1)OOC1(CCCCCC1)OO2 | > 100 | 37.4 | –
13 | O=S(=O)(c1ccc(Br)cc1F)N1CCC2(CC1)OOC1(CCCCC1)OO2 | > 100 | 322 | –
14 | Cc1ccc(S(=O)(=O)N2CCC3(CC2)OOC2(CCCC2)OO3)cc1 | > 100 | 24.2 | –
15 | CCN(CC)CCCC(C)Nc1ccnc2cc(Cl)ccc12 (stereo not drawn) [CHLOROQUINE] | > 100 | 4.36 | Activity (Plasmodium berghei [4]): 100%
16 | CCCS(=O)(=O)N1CCC2(CC1)OOC(C)(CC)OO2 | > 100 | 23.3 | –
17 | CS(=O)(=O)N1CCC2(CC1)OOC1(CCCCCC1)OO2 | > 100 | 9.67 | Activity (Plasmodium falciparum [5]): Active; Activity (Plasmodium berghei [6]): >0.1%; Activity (Plasmodium falciparum [7]): Active; Activity (Plasmodium berghei [8]): inactive
18 | CCS(=O)(=O)N1CCC2(CC1)OOC1(CCCCCC1)OO2 | > 100 | 62.5 | –
19 | CCCS(=O)(=O)N1CCC2(CC1)OOC1(CCCCC1)OO2 | > 100 | 12.9 | Activity (Plasmodium falciparum [5]): Active; Activity (Plasmodium berghei [6]): >0.1%; Activity (Plasmodium falciparum [7]): Active; Activity (Plasmodium berghei [8]): inactive
20 | C[C@H]1[C@@H](O)O[C@@H]2O[C@@]3(C)CC[C@H]4[C@H](C)CC[C@@H]1[C@@]24OO3 [ARTENIMOL] | > 100 | 0.7 | –
21 | CCCS(=O)(=O)N1CCC2(CC1)OOC(C)(c1ccc(Cl)cc1)OO2 | > 100 | 8360 | –
22 | CCCS(=O)(=O)N1CCC2(CC1)OOC(C)(C1CC1)OO2 | > 100 | 60.2 | –

Row | SMILES | CC50 (Huh-7) [µg/mL] | IC50 (Plasmodium falciparum [1]) [nM] | also measured
23 | O=S(=O)(CCCCl)N1CCC2(CC1)OOC1(CCCCC1)OO2 | > 100 | 40.6 | –
24 | COc1ccc(S(=O)(=O)N2CCC3(CC2)OOC2(CCCCC2)OO3)cc1 | > 100 | 32.2 | –
25 | CCS(=O)(=O)N1CCC2(CC1)OOC1(CCCCC1)OO2 | > 100 | 10.5 | Activity (Plasmodium falciparum [5]): Active; Activity (Plasmodium berghei [6]): >0.1%; Activity (Plasmodium berghei [9]): 100%; Activity (Plasmodium falciparum [7]): Active; Activity (Plasmodium berghei [8]): inactive; Activity (Plasmodium berghei [10]): Active
26 | O=S(=O)(c1ccc(Br)cc1F)N1CCC2(CC1)OOC1(CCCC1)OO2 | > 100 | 44.2 | –
27 | O=S(=O)(CCCCl)N1CCC2(CC1)OOC1(CCCC1)OO2 | > 100 | 8.43 | Activity (Plasmodium berghei [4]): <0.1%; Activity (Plasmodium falciparum [5]): Active; Activity (Plasmodium berghei [11]): Active; Activity (Plasmodium berghei [6]): inactive; Activity (Plasmodium berghei [12]): 100%; Activity (Plasmodium falciparum [7]): Active; Activity (Plasmodium berghei [8]): Active; Activity (Plasmodium berghei [13]): Active; Activity (Plasmodium berghei [10]): Active
28 | COc1ccc(S(=O)(=O)N2CCC3(CC2)OOC2(CCCCCC2)OO3)cc1 | > 100 | 46.6 | –
29 | CCCS(=O)(=O)N1CCC2(CC1)OOC(C)(C)OO2 | > 100 | 101 | –
30 | CCCCS(=O)(=O)N1CCC2(CC1)OOC1(CCCC1)OO2 | > 100 | 41.9 | –
31 | O=S(=O)(Cc1ccccc1)N1CCC2(CC1)OOC1(CCCCC1)OO2 | > 100 | 49.4 | –
32 | O=S(=O)(CCCCl)N1CCC2(CC1)OOC1(CCCCCC1)OO2 | > 100 | 13 | –
33 | CCCS(=O)(=O)N1CCC2(CC1)OOC(C)(c1ccccc1)OO2 | > 100 | 129 | –
34 | CCCC1(C)OOC2(CCN(S(=O)(=O)CCC)CC2)OO1 | > 100 | 10.9 | Activity (Plasmodium falciparum [5]): Active; Activity (Plasmodium berghei [6]): >0.1%; Activity (Plasmodium falciparum [7]): Active; Activity (Plasmodium berghei [8]): inactive
35 | O=S(=O)(Cc1ccccc1)N1CCC2(CC1)OOC1(CCCC1)OO2 | > 100 | 20.6 | –
36 | CCCS(=O)(=O)N1CCC2(CC1)OOC1(CCCCCC1)OO2 | > 100 | 4.7 | Activity (Plasmodium falciparum [5]): Active; Activity (Plasmodium berghei [6]): >0.1%; Activity (Plasmodium falciparum [7]): Active; Activity (Plasmodium berghei [8]): inactive
37 | CCCS(=O)(=O)N1CCC2(CC1)OOC1(CCCC1)OO2 | > 100 | 9450 | –
38 | O=S(=O)(Cc1ccccc1)N1CCC2(CC1)OOC1(CCCCCC1)OO2 | > 100 | 64.7 | –
39 | CCCCS(=O)(=O)N1CCC2(CC1)OOC1(CCCCC1)OO2 | > 100 | 57.2 | –
40 | CS(=O)(=O)N1CCC2(CC1)OOC1(CCCC1)OO2 | > 100 | 41.9 | –
41 | O=S(=O)(c1ccc(F)cc1)N1CCC2(CC1)OOC1(CCCCC1)OO2 | > 100 | 77.4 | –
42 | C[C@@H]1CC[C@H]2[C@@H](C)C(=O)O[C@@H]3O[C@@]4(C)CC[C@@H]1[C@]32OO4 [ARTEMISININ] | – | 4.74 | –
43 | O=S(=O)(c1ccc(Br)cc1F)N1CCC2(CC1)OOC1(CCCCCC1)OO2 | > 100 | 10.4 | Activity (Plasmodium falciparum [5]): Active; Activity (Plasmodium berghei [6]): >0.1%; Activity (Plasmodium falciparum [7]): Active; Activity (Plasmodium berghei [8]): inactive
44 | C[C@H]1[C@H](OC(=O)CCC(=O)O)O[C@@H]2O[C@@]3(C)CC[C@H]4[C@H](C)CC[C@@H]1[C@@]24OO3 [ARTESUNATE] | > 100 | 3.3 | –
